Data taken from patent publication US20170326125A1, “MULTISUBSTITUTED AROMATIC COMPOUNDS AS INHIBITORS OF THROMBIN” (VERSEON CORPORATION, priority 2016, published 2017).

Molecular target: T1, Human thrombin (Homo sapiens, UniProt P00734)
T1 construct: purchased Haematologic Technologies Inc
Assay: Inhibition of the protease activity of thrombin (chromogenic substrate S-2238)
Type: biochemical

[1] = inhibition of the protease activity of thrombin
[2] = Table C, 3 nM thrombin, 125 μM S-2238, 10 min pre-incubation, RT

| IC50 [1] [µM] | IC50 [2] [µM] | Compound |
| --- | --- | --- |
| > 1 |  | CCNC(=O)n1nc(-c2cccnc2)nc1NCc1ccc(F)cc1 [Cmpd 296, N-ethyl-5-[(4-fluorophenyl)methyl]amino-3-(pyridin-3-yl)-1H-1,2,4-triazole-1-carboxamide] |
| > 1 |  | CCN(C)C(=O)n1nc(-c2cccnc2)nc1NCc1ccc(F)cc1 [Cmpd 297, N-ethyl-5-[(4-fluorophenyl)methyl]amino-N-methyl-3-(pyridin-3-yl)-1H-1,2,4-triazole-1-carboxamide] |
| < 0.1 |  | O=C(Oc1ccccc1)n1nc(-c2cccnc2)nc1NCc1ccc(F)cc1 [Cmpd 298, phenyl 5-[(4-fluorophenyl)methyl]amino-3-(pyridin-3-yl)-1H-1,2,4-triazole-1-carboxylate] |
| > 1 |  | CC(C)OC(=O)n1nc(-c2cccnc2)nc1NCc1ccc(F)cc1 [Cmpd 299, propan-2-yl 5-[(4-fluorophenyl)methyl]amino-3-(pyridin-3-yl)-1H-1,2,4-triazole-1-carboxylate] |
| > 1 |  | CC(C)(C)OC(=O)n1nc(-c2cccnc2)nc1NCc1ccc(F)cc1 [Cmpd 300, tert-butyl 5-[(4-fluorophenyl)methyl]amino-3-(pyridin-3-yl)-1H-1,2,4-triazole-1-carboxylate] |
|  | < 0.1 | CC(C)C(=O)n1nc(-c2cccnc2)nc1NCc1ccc(Cl)cc1 [Cmpd 306, 1-(5-[(4-chlorophenyl)methyl]amino-3-(pyridin-3-yl)-1H-1,2,4-triazol-1-yl)-2-methylpropan-1-one] |
|  | < 0.1 | CC(=O)n1nc(-c2cccnc2)nc1NCc1ccc(Cl)cc1 [Cmpd 307, 1-(5-[(4-chlorophenyl)methyl]amino-3-(pyridin-3-yl)-1H-1,2,4-triazol-1-yl)ethan-1-one] |
|  | < 0.1 | CCC(=O)n1nc(-c2cccnc2)nc1NCc1ccc(Cl)cc1 [Cmpd 308, 1-(5-[(4-chlorophenyl)methyl]amino-3-(pyridin-3-yl)-1H-1,2,4-triazol-1-yl)propan-1-one] |
|  | > 1 | COCC(=O)n1nc(-c2cccnc2)nc1NCc1ccc(F)cc1 [Cmpd 311, 1-(5-[(4-fluorophenyl)methyl]amino-3-(pyridin-3-yl)-1H-1,2,4-triazol-1-yl)-2-methoxyethan-1-one] |
|  | < 0.1 | CC(C)C(=O)n1nc(-c2cccnc2)nc1NCc1ccc(F)cc1 [Cmpd 312, 1-(5-[(4-fluorophenyl)methyl]amino-3-(pyridin-3-yl)-1H-1,2,4-triazol-1-yl)-2-methylpropan-1-one] |
|  | < 0.1 | CC(C)CC(=O)n1nc(-c2cccnc2)nc1NCc1ccc(F)cc1 [Cmpd 314, 1-(5-[(4-fluorophenyl)methyl]amino-3-(pyridin-3-yl)-1H-1,2,4-triazol-1-yl)-3-methylbutan-1-one] |
|  | < 0.1 | CCCC(=O)n1nc(-c2cccnc2)nc1NCc1ccc(F)cc1 [Cmpd 316, 1-(5-[(4-fluorophenyl)methyl]amino-3-(pyridin-3-yl)-1H-1,2,4-triazol-1-yl)butan-1-one] |
|  | < 0.1 | CC(=O)n1nc(-c2cccnc2)nc1NCc1ccc(F)cc1 [Cmpd 317, 1-(5-[(4-fluorophenyl)methyl]amino-3-(pyridin-3-yl)-1H-1,2,4-triazol-1-yl)ethan-1-one] |
|  | < 0.1 | COc1ccc(CNc2nc(-c3cccnc3)nn2C(=O)C(C)C)cc1 [Cmpd 318, 1-(5-[(4-methoxyphenyl)methyl]amino-3-(pyridin-3-yl)-1H-1,2,4-triazol-1-yl)-2-methylpropan-1-one] |

More lines, now with the values behind:

| Compound | IC50 [1] [µM] | IC50 [2] [µM] |
| --- | --- | --- |
| O=C(c1ccsc1)n1nc(-c2ccncc2)nc1NCc1ccccc1 [Cmpd 289, N-benzyl-3-(pyridin-4-yl)-1-[(thiophen-3-yl)carbonyl]-1H-1,2,4-triazol-5-amine] | < 0.1 |  |
| c1ccc(CNc2nc(-c3ccncc3)n[nH]2)cc1 [Cmpd 290, N-benzyl-3-(pyridin-4-yl)-1H-1,2,4-triazol-5-amine] | > 1 |  |
| O=C(c1ccsc1)n1nc(-c2cccs2)nc1NCc1ccccc1 [Cmpd 291, N-benzyl-3-(thiophen-2-yl)-1-[(thiophen-3-yl)carbonyl]-1H-1,2,4-triazol-5-amine] | 0.1 to 1 |  |
| COc1ccccc1C(=O)N(Cc1ccccc1)c1cc(-c2ccccc2F)n[nH]1 [Cmpd 292, N-benzyl-N-[3-(2-fluorophenyl)-1H-pyrazol-5-yl]-2-methoxybenzamide] | > 1 |  |
| CCN(C)C(=O)c1cc(-c2ccccn2)nn1CCc1ccc(F)cc1 [Cmpd 293, N-ethyl-1-[2-(4-fluorophenyl)ethyl]-N-methyl-3-(pyridin-2-yl)-1H-pyrazole-5-carboxamide] | > 1 |  |
| CCN(C)C(=O)c1cc(-c2ccccn2)n(CCc2ccc(F)cc2)n1 [Cmpd 294, N-ethyl-1-[2-(4-fluorophenyl)ethyl]-N-methyl-5-(pyridin-2-yl)-1H-pyrazole-3-carboxamide] | > 1 |  |
| CCNC(=O)c1cn(-c2ccccn2)nc1NCc1ccc(F)cc1 [Cmpd 295, N-ethyl-3-[(4-fluorophenyl)methyl]amino-1-(pyridin-2-yl)-1H-pyrazole-4-carboxamide] | > 1 |  |
| CC(C)(C)OC(=O)Nc1ccccc1C(=O)n1nc(-c2ccccn2)nc1NCc1ccccc1 [Cmpd 301, tert-butyl N-(2-[5-(benzylamino)-3-(pyridin-2-yl)-1H-1,2,4-triazol-1-yl]carbonylphenyl)carbamate] | > 1 |  |
| CC(=O)c1cn(-c2ccccc2)nc1N(Cc1ccc(F)cc1)C(=O)OC(C)(C)C [Cmpd 302, tert-butyl N-(4-acetyl-1-phenyl-1H-pyrazol-3-yl)-N-[(4-fluorophenyl)methyl]carbamate] | > 1 |  |
| COc1ccccc1C(=O)c1cn(-c2ccccc2)nc1N(Cc1ccc(F)cc1)C(=O)OC(C)(C)C [Cmpd 303, tert-butyl N-[(4-fluorophenyl)methyl]-N-4-[(2-methoxyphenyl)carbonyl]-1-phenyl-1H-pyrazol-3-ylcarbamate] | > 1 |  |
| COc1ccccc1C(O)c1cc(-c2ccccn2)nn1CCc1ccc(F)cc1 (stereo not drawn) [Cmpd 304, 1-[2-(4-fluorophenyl)ethyl]-3-(pyridin-2-yl)-1H-pyrazol-5-yl(2-methoxyphenyl)methanol] | > 1 |  |
| COc1ccccc1CNc1nc(-c2cccnc2)nn1C(=O)C(C)C [Cmpd 305, 1-(5-[(2-methoxyphenyl)methyl]amino-3-(pyridin-3-yl)-1H-1,2,4-triazol-1-yl)-2-methylpropan-1-one] |  | > 1 |
| CC(C)(C)C(=O)n1nc(-c2ccco2)nc1NCc1ccc(F)cc1 [Cmpd 309, 1-(5-[(4-fluorophenyl)methyl]amino-3-(furan-2-yl)-1H-1,2,4-triazol-1-yl)-2,2-dimethylpropan-1-one] |  | < 0.1 |
| CC(C)C(=O)n1nc(-c2ccco2)nc1NCc1ccc(F)cc1 [Cmpd 310, 1-(5-[(4-fluorophenyl)methyl]amino-3-(furan-2-yl)-1H-1,2,4-triazol-1-yl)-2-methylpropan-1-one] |  | < 0.1 |
| O=C(Cc1ccccc1)n1nc(-c2cccnc2)nc1NCc1ccc(F)cc1 [Cmpd 313, 1-(5-[(4-fluorophenyl)methyl]amino-3-(pyridin-3-yl)-1H-1,2,4-triazol-1-yl)-2-phenylethan-1-one] |  | < 0.1 |
| O=C(CCc1ccccc1)n1nc(-c2cccnc2)nc1NCc1ccc(F)cc1 [Cmpd 315, 1-(5-[(4-fluorophenyl)methyl]amino-3-(pyridin-3-yl)-1H-1,2,4-triazol-1-yl)-3-phenylpropan-1-one] |  | < 0.1 |
